Measurements from publication PMC3897731, “Antimicrobial Properties and Membrane-Active Mechanism of a Potential α-Helical Antimicrobial Derived from Cathelicidin PMAP-36” (PLoS ONE, 2014).
Converted amounts (≈) assume the structure as drawn. Where two headings read alike, the source gives them in different places. Ends that are not written are not given here.

Key:
[1] = tested on: Escherichia coli ATCC 25922; conditions: ATCC 25922, 24 h
Description: (§1) The antimicrobial activity of each peptide was determined against the following bacteria strains: Escherichia coli ATCC 25922, Escherichia coli UB1005, Salmonella enterica serovar typhimurium C77-31, Staphylococcus aureus ATCC 29213, Staphylococcus aureus ATCC 25923 and Staphylococcus epidermidis ATCC 12228. The minimal inhibitory concentrations (MICs) of the peptides were measured according to a modified version of the National Committee for Clinical Laboratory Standards (NCCLS) broth microdilution method as described previously. Briefly, mid-logarithmic phase bacteria were cultured in Mueller-Hinton (MH) broth and then diluted to 1×10^5 CFU/ml. Equal volumes (50 µl) of microorganism solution and 2-fold serially diluted different concentrations (0.25–128 µM) peptides in 0.01% (v/v) acetic acid and 0.2% (w/v) bovine serum albumin (BSA, Sigma) were added to each well of the sterile 96-well plate. After incubation for 24 h at 37°C, MICs were determined as the lowest concentration of peptides that prevented visible turbidity by visual inspection. The tests were performed in triplicate. Cultures without peptides and uninoculated MH broth were employed as positive and negative controls, respectively. In addition, the salt stability of the peptides was tested in the MIC assay mentioned above.

Escherichia coli UB1005 = tested on: Escherichia coli UB1005
Description: as §1

[2] = tested on: Salmonella enterica serovar typhimurium C77-31
Description: as §1

[3] = tested on: Staphylococcus aureus ATCC 25923; conditions: ATCC 25923, 24 h
Description: as §1

[4] = tested on: Staphylococcus aureus ATCC 29213; conditions: ATCC 29213, 24 h
Description: as §1

[5] = tested on: Staphylococcus epidermidis ATCC 12228
Description: as §1

[6] = tested on: gram-negative and gram-positive bacteria (six strains tested)
Description: as §1

human erythrocytes = assay: Hemolytic activity; assay type: cell-based; conditions: for Hemolytic activity (in words): 1 h at 37°C in PBS, absorbance at 570 nm, up to 128 µM, three independent experiments; for Concentration causing 50% hemolysis: highest concentration 128 µM
Description: The hemolytic activity of the peptides was measured as the amount of hemoglobin released by the lysis of human erythrocytes. Briefly, 1 ml of fresh human blood cells (hRBCs) obtained from a healthy donor (Na Dong, Harbin, China) in a polycarbonate tube containing heparin was centrifuged at 1,000×g for 5 min at 4°C [16]. The experimental protocol was reviewed and approved by the ethics committee of the Northeast Agricultural University Hospital. The erythrocytes obtained were washed three times with phosphate-buffered saline (PBS) solution (pH 7.2) and resuspended in PBS. A 50 µl volume of the erythrocyte solution was incubated with 50 µl of various peptides dissolved in PBS for 1 h at 37°C. Intact erythrocytes were pelleted by centrifugation at 1,000×g for 5 min at 4°C, and the supernatant was transferred to a new 96-well plate. The release of hemoglobin was monitored by measuring the absorbance at 570 nm. As negative and positive controls, hRBCs in PBS without the peptide and 0.1% Triton X-100 were employed, respectively.

[7] = strain not given; for MIC, Without treatment: no salt added
E. coli ATCC 25922 = assay: FACScan analysis of membrane integrity (propidium iodide); assay type: cell-based, Escherichia coli
Description: The integrity of the bacterial cell membranes after peptide treatment was determined using a previously described method. In brief, mid-logarithmic phase E. coli ATCC 25922 were harvested by centrifugation and washed three times with 10 mM PBS solution. The peptides (1×MIC and 2×MIC) were added and incubated for 30 min at 28°C with constant shaking at 140 rpm, and then, propidium iodide (PI, 10 µg/ml final concentration, Sigma) was added and incubated for a further 30 min at 4°C. After incubation, the unbound dye was removed via excessive washing of cells with PBS. Flow cytometry analysis was conducted using a FACScan instrument (Becton–Dickinson, San Jose, CA). E. coli cells were incubated with PI without peptide treated as negative control.

E. coli UB1005 = assay: Inner (cytoplasmic) membrane depolarization, diSC3(5); assay type: cell-based, Escherichia coli; conditions: 0.4 µM diSC3(5), monitored over 360 s
Description: The cytoplasmic membrane depolarization activity of the peptides was measured by using E. coli UB1005 and the membrane potential sensitive fluorescent dye diSC3(5) as described previously. Briefly, mid-logarithmic phase E. coli were washed with 5 mM sodium HEPES buffer, pH 7.4, containing 20 mM glucose, and resuspended to an OD600 of 0.05 in the same buffer. The cell suspension was incubated with 0.4 µM diSC3(5) until a stable reduction of fluorescence was achieved (approximately 1 h). Then KCl was added to a final concentration of 0.1 M to equilibrate the cytoplasmic and external K^+. Two milliliters of the cell suspension were placed in a 1 cm cuvette, and the peptides were added to achieve the desired concentrations. Changes in fluorescence were recorded using an F-4500 fluorescence spectrophotometer (Hitachi, Japan) with an excitation wavelength of 622 nm and an emission wavelength of 670 nm. 0.1% Triton X-100 was employed as positive controls.

[8] = serovar typhimurium C77-31, 24 h
[9] = all tested strains, >128 µM counted as 256 µM
[10] = broth microdilution, MH broth, 1×10^5 CFU/ml, 24 h at 37°C, visible turbidity, triplicate

Molecule | MIC E. coli ATCC25922 [1] [µM] | MIC E. coli UB 1005 (Escherichia coli UB1005; UB1005, 24 h) [µM] | MIC S. typhimurium C77-31 [2, 8] [µM] | MIC S. aureus ATCC 25923 [3] [µM] | MIC S. aureus ATCC 29213 [4] [µM] | MIC S. epidermidis ATCC 12228 ([5]; ATCC 12228, 24 h) [µM] | GM, geometric mean of the MICs [6, 9] [µM] | Hemolytic activity (in words) (human erythrocytes) | also measured
GRFRRLRKKTRKRLKKIGKVLKAI-NH2 [GI24-W23A] | 16 | 16 | >128 | 128 | 128 | 128 | 71.84 |  | 
GRFRRLRKKTRKRLKKIGKVLKWIPPIVGSIPLGCG-NH2 [PMAP-36, porcine myeloid antimicrobial peptide-36] | 1 | 2 | 1 | 2 | 2 | 2 | 1.59 | slightly hemolytic activity | MIC, CaCl2 (1 mM) [7]: 1 µM; MIC, MgCl2 (1 mM) [7]: 2 µM; MIC, NaCl (50 mM) [7]: 1 µM; MIC, NaCl (100 mM) [7]: 1 µM; MIC, NaCl (150 mM) [7]: 2 µM; MIC, Without treatment [7]: 1 µM
GVFRVLRKVTRVVLKVIGKVLKWI-NH2 [GI24-V6] | 2 | 4 | 4 | 2 | 2 | 2 | 2.52 | relatively high hemolytic activity | Concentration causing 50% hemolysis (human erythrocytes; 1 h at 37°C): 8 µM
GRFRRLRKKTRKRLKKIGKVLKWI-NH2 [GI24] | 1 | 2 | 1 | 4 | 2 | 2 | 1.78 | slightly hemolytic activity | Concentration causing 50% hemolysis (human erythrocytes; 1 h at 37°C): > 128 µM; MIC, CaCl2 (1 mM) [7]: 1 µM; MIC, MgCl2 (1 mM) [7]: 2 µM; MIC, NaCl (50 mM) [7]: 1 µM; MIC, NaCl (100 mM) [7]: 2 µM; MIC, NaCl (150 mM) [7]: 2 µM; MIC, Without treatment [7]: 1 µM
GRFRRLRKKTRKRLKKIGKVLKLI-NH2 [GI24-W23L] | 1 | 2 | 2 | 4 | 4 | 4 | 2.52 | slightly hemolytic activity | 
GRFRRLRKKTRKRLKKIGKVLKKI-NH2 [GI24-W23K] | 32 | 16 | >128 | 64 | 32 | 32 | 45.25 | no hemolytic activity | 
PPIVGSIPLGCG-NH2 [PG12] | >128 | >128 | >128 | >128 | >128 | >128 | 256 | no hemolytic activity | 
GRFRRLRKKTRKRLKKIGKV |  |  |  |  |  |  |  |  | Antimicrobial activity (in words) ([6]; tested microorganisms, up to 128 µM): extremely low antimicrobial activity
GVFRRLRKVTRKVLKKIGKVLKWI-NH2 [GI24-V3] | 4 | 4 | 4 | 4 | 4 | 2 | 3.56 | relatively high hemolytic activity | Concentration causing 50% hemolysis (human erythrocytes; 1 h at 37°C): 128 µM
GRFRRLRKKTRK-NH2 [GK12] | 128 | 128 | >128 | >128 | >128 | >128 | 203.19 | no hemolytic activity | 
CC[C@H](C)[C@H](NC(=O)CN)C(=O)NCC(=O)N[C@@H](C)C(=O)N[C@H](C(=O)N[C@@H](CC(C)C)C(=O)N[C@@H](CCCCN)C(=O)N[C@H](C(=O)N[C@@H](CC(C)C)C(=O)N[C@H](C(=O)N[C@H](C(=O)NCC(=O)N[C@@H](CC(C)C)C(=O)N1CCC[C@H]1C(=O)N[C@@H](C)C(=O)N[C@@H](CC(C)C)C(=O)N[C@H](C(=O)N[C@@H](CO)C(=O)N[C@@H](Cc1c[nH]c2ccccc12)C(=O)N[C@H](C(=O)N[C@@H](CCCCN)C(=O)N[C@@H](CCCNC(=N)N)C(=O)N[C@@H](CCCCN)C(=O)N[C@@H](CCCNC(=N)N)C(=O)N[C@@H](CCC(N)=O)C(=O)N[C@@H](CCC(N)=O)C(N)=O)[C@@H](C)CC)[C@@H](C)CC)[C@@H](C)O)[C@@H](C)O)C(C)C)C(C)C [melittin, reference compound] |  |  |  |  |  |  |  |  | MIC E. coli UB 1005 (Escherichia coli UB1005; [10]): 2 µM (≈ 5.69 µg/mL); MIC S. typhimurium C77-31 [2, 10]: 2 µM (≈ 5.69 µg/mL); MIC S. epidermidis ATCC 12228 [5, 10]: 0.5 µM (≈ 1.42 µg/mL); GM, geometric mean of the MICs ([6]; 24 h): 2.52 µM; Concentration causing complete hemolysis (human erythrocytes; 1 h at 37°C): 4 µM; Cells stained with PI (E. coli ATCC 25922): 40.7%; Cytoplasmic membrane depolarization (diSC3(5) fluorescence, in words) (E. coli UB1005): induced dose-dependent increases in diSC3(5) fluorescence
RLKKIGKVLKWI-NH2 [RI12] | 8 | 16 | 8 | 128 | 64 | 64 | 28.51 | no hemolytic activity | 
